Experimental data from patent EP1733731A1, “New uses of Glycerol derivatives in particular in cosmetics” (AGRO INDUSTRIE RECHERCHES ET DEVELOPPEMENTS (A.R.D.), priority 2005, dated 2006).

Test system: proMMP-3
Assay: activation of proMMP-3 by plasmin in cultured dermal fibroblasts (western blot)
Format: cell-based
Conditions: 25 µg/mL; 2,5 µg/mL plasmin; Figure 1B-4
Experimental: • La Figure 1 représente la modulation de l'activation des proMMP-3 (Figures 1A et 1B) et proMMP-1 (Figure 1C) in vitro comme en culture par des extraits glycolipidiques du gluten de blé. • Figure 1A : 100 nM de proMMP-3 (Figure 1A-1) sont incubés avec 65 nM de plasmine en absence (Figure 1A-2) ou en présence de glycolipides (Figure 1A-3 et 4), à la concentration de 50µg/mL pour M1-Sucres (Figure 1A-3) et 25 µg/mL pour ED 23-11 (Figure 1A-4). • Figure 1B : des fibroblastes dermiques sont ensemencés en plaque 24 puits à raison de […] cellules par puits jusque confluence. Après une mise au repos de 18 heures, les cellules sont incubées en présence (Figure 1B-2, 3 et 4) ou non (Figure 1B-1) de 2,5 µg/mL de plasmine ainsi que des glycolipides M1(-Sucres) (Figure 1B-3) et ED 23-11 (Figure 1B-4) aux mêmes concentrations que précédemment. • Figure 1C : des fibroblastes dermiques sont ensemencés en plaque 24 puits à raison de […] cellules par puits jusque confluence. Après une mise au repos de 18 heures, les cellules sont incubées en présence (Figure 1C-2, 3 et 4) ou non (Figure 1C-1) de 2,5 µg/mL de plasmine ainsi que des glycolipides M1(-Sucres) (Figure 1C-3) et ED 23-11 (Figure 1C-4) aux mêmes concentrations que précédemment. Dans l'ensemble des figures 1A, 1B et 1C, la réaction est arrêtée aux temps indiqués par addition de 0,3 mg/ml d'aprotinine. […]

CCCCC/C=C\C/C=C\CCCCCCCCOC[C@H](CO[C@@H]1O[C@H](COC(=O)CCCCCCCCCCCCCCC)[C@H](O)[C@H](O)[C@H]1O)OCCCCCCCC/C=C\C/C=C\CCCCC [ED23-11, 1,2-di-O-linoléyl-3-O-[6'-O-palmitoyl-β-D-galactopyranosyl]-sn-glycérol]
activation de la proMMP-3: inhibition significative
